Source: patent US20150189844A1, “METHOD FOR […] RECOMBINATION” (Biogemma, priority 2012, published 2015)
Where two headings read alike, the source gives them in different places.

Legend:
I-SceI:GR [1] = conditions: one week
Procedure: (§1) Embryos isolated from selfed plants containing the TL and DL were placed onto a regeneration medium according to Ishida et al. (Ishida et al., 1996) lacking the kanamycin selective agent. For first experiment, LS-AS medium was complemented by 0, 30 or 50 μM dexamethasone and after one week transferred sequentially to LSD1.5, LSZ and ½LSF medium lacking dexamethasone and containing 50 mg·L−1 of kanamycin. For the second experiment, callus was developed for 3 days on LS-AS, 1 week on LSD1.5 and 3 weeks on LSZ medium. Then, callus was cultivated 1 week on LSZ medium complemented by 0 μM, 30 μM or 50 μM of dexamethasone and selected for 2 weeks on LSZ and then ½ LSF medium complemented by 50 mg·L−1 of kanamycin. GFP fluorescence of callus was visualized under the fluorescence stereomicroscope (Leica MZ16F) with a GFP2 filter.

I-SceI:GR [2] = system: I-SceI:GR
Procedure: as §1
Plant regeneration from maize leaves has not been reported but calli derived from immature maize embryos are routinely used to regenerate plants (Lu et al., 1983). Embryos isolated from immature kernels of selfed F2 plants containing the TL and the DL were placed on callus induction medium with dexamethasone at 0 μM (control), 30 μM or 50 μM.

SMILES: C[C@@H]1C[C@H]2[C@@H]3CCC4=CC(=O)C=C[C@]4(C)[C@@]3(F)[C@@H](O)C[C@]2(C)[C@@]1(O)C(=O)CO [Dexamethasone, dexamethasone]
- Mutations in TL I-SceI site (I-SceI:GR [1]; TL1/DL calli, 30 μM): 76
- Mutations in TL I-SceI site (I-SceI:GR [1]; TL1/DL calli, 50 μM): 76
- Mutations in TL I-SceI site (I-SceI:GR [1]; TL2/DL calli, 30 μM): 15
- Mutations in TL I-SceI site (I-SceI:GR [1]; TL2/DL calli, 50 μM): 36
- GT Frequency, discovered kanamycin resistant events/extracted embryos (I-SceI:GR [2]; TL1 × DL, 30 μM): 0.39%
- GT Frequency, discovered kanamycin resistant events/extracted embryos (I-SceI:GR [2]; TL1 × DL, 50 μM): 0.55%
- Number of kanamycin resistant events (I-SceI:GR [2]; TL1 × DL, 181 extracted embryos, 50 μM): 1
- Number of kanamycin resistant events (I-SceI:GR [2]; TL1 × DL, 255 extracted embryos, 30 μM in callus induction medium): 1
- GT Frequency, discovered kanamycin resistant events/extracted embryos (I-SceI:GR [2]; TL2 × DL, 30 μM): 0.53%
- GT Frequency, discovered kanamycin resistant events/extracted embryos (I-SceI:GR [2]; TL2 × DL, 50 μM): 0.27%
- Number of kanamycin resistant events (I-SceI:GR [2]; TL2 × DL, 374 extracted embryos, 50 μM): 1
- Number of kanamycin resistant events (I-SceI:GR [2]; TL2 × DL, 563 extracted embryos, 30 μM): 3
